Columns and labels:
MOLT-4 = assay: NCI 60 human tumor cell line screen (SRB); format: cell-based; settings: MOLT-4 (Leukemia); 48 h
HOP-62 = assay: NCI 60 human tumor cell line screen (SRB); format: cell-based; settings: HOP-62 (Non-Small Cell Lung Cancer); 48 h
NCI-H460 = assay: NCI 60 human tumor cell line screen (SRB); format: cell-based; settings: NCI-H460 (Non-Small Cell Lung Cancer); 48 h
NCI-H522 = assay: NCI 60 human tumor cell line screen (SRB); format: cell-based; settings: NCI-H522 (Non-Small Cell Lung Cancer); 48 h
SK-MEL-2 = assay: NCI 60 human tumor cell line screen (SRB); format: cell-based; settings: SK-MEL-2 (Melanoma); 48 h
CAKI-1 = assay: NCI 60 human tumor cell line screen (SRB); format: cell-based; settings: CAKI-1 (Renal Cancer); 48 h
RXF 393 = assay: NCI 60 human tumor cell line screen (SRB); format: cell-based; settings: RXF 393 (Renal Cancer); 48 h
SN12C = assay: NCI 60 human tumor cell line screen (SRB); format: cell-based; settings: SN12C (Renal Cancer); 48 h
T-47D = assay: NCI 60 human tumor cell line screen (SRB); format: cell-based; settings: T-47D (Breast Cancer); 48 h
KMS-11 = assay: Cell viability assay (MTS); format: cell-based; settings: Homo sapiens, 72 hours, mean ± standard deviation
Procedure: (§1) Human multiple myeloma cell lines 8226, H929, JJN3, KMH11, KMS11, KMS18, LP1, MM1S, OPM2 and U266 were grown in Iscove modified Dulbecco's medium (IMDM). Human leukemia cell lines K562, OCI-AML2 and U937 were cultured in RPMI-1640 medium. Primary peripheral blood mononuclear cells were isolated from multiple myeloma patients by Ficoll density gradient centrifugation and bone marrow aspirates were obtained from multiple myeloma patients at the Princess Margaret Cancer Centre of the University Health Network (UHN; Toronto, ON, Canada). Primary cells were cultured in IMDM. The collection and use of human tissue for this study were approved by the UHN institutional ethics review board. All cell culture media were obtained from the Ontario Cancer Institute Tissue Culture Media Facility (Toronto, ON, Canada) and were supplemented with 10% fetal calf serum, […] (Hyclone, Logan, Utah). All cells were grown in a humidified incubator at 37° C. with 5% CO2.
(§2) Cellular viability was primarily assessed by 3-(4,5-dimethylthiazol-2-yl)-5-(3-carboxymethoxyphenyl)-2-(4-sulfophenyl)-2H-tetrazolium (MTS) assay according to the manufacturer's instructions (Promega; Madison, Wis.). Cells were first seeded at a density of 10,000 cells per well in tissue culture-treated 96-well plates. Two hours after seeding, cells were treated with compounds for 72 hours at concentrations as indicated. As a control, cells were treated with DMSO alone in every assay plate. Following treatment and the MTS assay, cell viability was independently confirmed by reading the optical density (O.D.) at 490 nm and by exclusion of trypan blue stain (Invitrogen; Burlington, ON, Canada). The viability of primary mononuclear cells was determined by staining with Annexin V.
(§3) Table 9 summarizes data obtained for representative compounds of Formula I for cell viability and CT-L proteasome activity using OCI-AML-2 and KMS-11 cell lines.

OCI-AML-2 = assay: Cell viability assay (MTS); format: cell-based; settings: Homo sapiens, OCI-AML2, 72 hours, mean ± standard deviation
Procedure: as §1, §2, §3

[1] = system: chymotrypsin-like (CT-L) proteasome activity, KMS-11; assay: Proteasome enzymatic activity (tumor cell lysates); format: biochemical, human; settings: KMS-11 cell lysate; mean ± standard deviation
Procedure: (§4) Cells were harvested by centrifugation at 1,200 rpm at room temperature. Cell pellets were washed with PBS and lysed with assay lysis buffer (50 mM HEPES (N-2-hydroxyethylpiperazine-N′-2-ethanesulfonic acid), pH 7.5; 150 mM NaCl; 1% Triton X-100; 2 mM ATP). Cell lysates were incubated on ice for 30 minutes, mixed by vortex every 5 minutes, and then centrifuged at 12,000 g for 10 minutes. The supernatant was transferred to a 96-well plate. For each assay, 10 μg of total protein were incubated for 1 hour at 37° C. with increasing concentrations (1 nM to 10 μM) of test compound diluted in assay buffer (50 mM Tris-HCl (tris(hydroxymethyl)aminomethane-HCl), pH 7.5; 150 mM NaCl). DMSO alone was used as a control in every assay plate. After incubation, a specific fluorogenic proteasome substrate was added to each assay reaction at a final concentration of 40 μM in a total volume of 100 μL. N-Succinyl-Leu-Leu-Val-Tyr-7-amino-4-methylcoumarin (Suc-Leu-Leu-Val-Tyr-AMC) was used for measuring chymotrypsin-like (CT-L) activity, t-butoxycarbonyl-Leu-Arg-Arg-7-amino-4-methylcoumarin (Boc-Leu-Arg-Arg-AMC) for trypsin-like (T-L) activity, and benzyloxycarbonyl-L-leucyl-L-leucyl-L-glutamyl-7-amino-4-methylcoumarin (Z-Leu-Leu-Glu-AMC) for caspase-like (C-L) activity. The excitation wavelength was set at 360 nm and the fluorescence emission wavelength of AMC was detected at 460 nm. The fluorescence of free AMC released during the enzymatic reaction was measured with a SpectraMax M5 fluorescent spectrophotometric plate reader (Molecular Devices, Sunnyvale, Calif.). AMC release rate was measured at 37° C. in a kinetic mode, recording every 5 minutes for 30 minutes. Experiments were performed in triplicate and repeated at least twice.
as §3

[2] = system: chymotrypsin-like (CT-L) proteasome activity, OCI-AML-2; assay: Proteasome enzymatic activity (tumor cell lysates); format: biochemical, human; settings: OCI-AML-2 cell lysate; mean ± standard deviation
Procedure: as §4, §3

CCRF-CEM = assay: NCI 60 human tumor cell line screen (SRB); format: cell-based; settings: CCRF-CEM (Leukemia); 48 h

| Compound | Log10GI50 (MOLT-4) | Log10LC50 (MOLT-4) | Log10TGI50 (MOLT-4) | Log10GI50 (HOP-62) | Log10LC50 (HOP-62) | Log10TGI50 (HOP-62) | Log10GI50 (NCI-H460) | Log10LC50 (NCI-H460) | Log10TGI50 (NCI-H460) | Log10GI50 (NCI-H522) | Log10LC50 (NCI-H522) | Log10TGI50 (NCI-H522) | Log10GI50 (CAKI-1) | Log10LC50 (CAKI-1) | Log10TGI50 (CAKI-1) | Log10GI50 (RXF 393) | Log10LC50 (RXF 393) | Log10TGI50 (RXF 393) | Log10GI50 (SN12C) | Log10LC50 (SN12C) | other results |
| --- | --- | --- | --- | --- | --- | --- | --- | --- | --- | --- | --- | --- | --- | --- | --- | --- | --- | --- | --- | --- | --- |
| C[C@]1(C(=O)[C@H](Cc2ccccc2)NC(=O)[C@H](COC(F)F)NC(=O)[C@H](COC(F)F)NC(=O)CN2CCOCC2)CO1 [Example 26, (S)-N-{(S)-1-[(S)-1-Benzyl-2-((R)-2-methyl-oxiranyl)-2-oxo-ethylcarbamoyl]-2-difluoromethoxyethyl}-3-difluoromethoxy-2-(2-morpholin-4-yl-acetylamino)-propio-namide] | −7.69 | >−4.00 | −7.11 | −7.75 | −7.09 | −7.42 | −7.21 | −4.13 | −6.43 | −7.67 | >−4.00 | −7.19 | −6.72 | >−4.00 | −6.09 | −7.64 | −6.70 | −7.25 | −7.39 | −5.15 | Log10GI50 (SK-MEL-2): −7.54; Log10LC50 (SK-MEL-2): −5.46; Log10TGI50 (SK-MEL-2): −7.03; Log10TGI50 (SN12C): −6.67; Log10GI50 (T-47D): −7.78; Log10TGI50 (T-47D): −7.46; IC50 (KMS-11): 99.7 ± 17.7 nM; IC50 (OCI-AML-2): 223 ± 10.3 nM; IC50 [1]: 174 ± 434 nM; IC50 [2]: 358 ± 177 nM |
| Cc1ncc(C(=O)N[C@@H](COC(F)F)C(=O)N[C@@H](COC(F)F)C(=O)N[C@@H](Cc2ccccc2)C(=O)[C@@]2(C)CO2)s1 [Example 1, 2-methyl-thiazole-5-carboxylic acid ((S)-1-{(S)-1-[(S)-1-benzyl-2-((R)-2-methyloxiranyl)-2-oxo-ethylcarbamoyl]-2-difluoromethoxyethylcarbamoyl}-2-difluoromethoxyethyl)-amide] | −7.37 | >−4.00 | >−4.00 | −6.41 | >−4.00 | >−4.00 | −6.48 | −5.12 | −5.84 | −6.86 | −4.15 | −6.15 | −6.40 | >−4.00 | −5.28 | −6.79 | −6.02 | −6.41 | −6.54 | −4.03 | Log10GI50 (CCRF-CEM): −7.26; Log10LC50 (CCRF-CEM): >−4.00; Log10TGI50 (CCRF-CEM): >−4.00; Log10TGI50 (SN12C): −5.29; Log10GI50 (T-47D): −6.59; Log10TGI50 (T-47D): >−4.00; IC50 (KMS-11): 30.9 ± 10.7 nM; IC50 (OCI-AML-2): 109 ± 25.3 nM; IC50 [1]: 29.6 ± 3.69 nM; IC50 [2]: 39.2 ± 2.12 nM |
| CC(C)C[C@H](NC(=O)[C@H](Cc1ccccc1)NC(=O)[C@H](COC(F)F)NC(=O)CN1CCOCC1)C(=O)[C@@]1(C)CO1 [Example 25, (2S)-2-[[(2S)-3-(difluoromethoxy)-2-[(2-morpholinoacetyl)amino]propanoyl]amino]-N-[(1S)-3-methyl-1-[(2R)-2-methyloxirane-2-carbonyl]butyl]-3-phenyl-propanamide] | −7.69 | >−4.00 | −7.11 | −7.75 | −7.09 | −7.42 | −7.21 | −4.13 | −6.43 | −7.67 | >−4.00 | −7.19 | −6.72 | >−4.00 | −6.09 | −7.64 | −6.70 | −7.25 | −7.39 | −5.15 | Log10GI50 (SK-MEL-2): −7.54; Log10LC50 (SK-MEL-2): −5.46; Log10TGI50 (SK-MEL-2): −7.03; Log10TGI50 (SN12C): −6.67; Log10GI50 (T-47D): −7.78; Log10TGI50 (T-47D): −7.46; IC50 (KMS-11): 39.5 ± 7.45 nM; IC50 (OCI-AML-2): 55.6 ± 19.2 nM |
